From patent US9029092B2, “Solution phase homogeneous assays” (Beckman Coulter, Inc., priority 2009, dated 2015)
Where “and” joins values, the source holds several entries; their conditions need not be identical. Equal entries are not always repeated.

Experiments:
TnI = assay: Assays utilizing various SSIA in TnI assay; assay type: biochemical; settings: for Signal/Noise S1/S0: calibrator S1; for Signal/Noise S2/S0: calibrator S2; for Signal/Noise S3/S0: calibrator S3; for Signal/Noise S4/S0: calibrator S4; for Signal/Noise S5/S0: calibrator S5; for Signal/Noise S6/S0: calibrator S6
Protocol: In a reaction tube, 400 uL of TnI M6 antibody-HRP conjugate at 0.5 ug/mL in buffered aqueous solution at pH. 8.0 (100 mM Tris, 150 mM NaCl, 0.1 mM EDTA, 0.2% Tween-20 and 1% BSA), 400 uL of AK1˜Dex70/31˜Streptavidin (fraction 1) 2:1 SA/Ab at 2 ug/mL Ab also in buffered aqueous solution at pH 8.0, and 400 uL of calibrator standard solution containing the TnI analyte at a known concentration. One tube was prepared for each calibrator concentration. […] Next, 25 uL of each antioxidant as a concentrated solution of 2 mM, 1 mM or 0.5 mM was pipetted into the plate wells using a repeater pipette. The plates were rotated for 10 seconds to mix and incubated between 5 to 33 minutes. Detection was performed with a SpectraMax L injection plate luminometer.

PSA = assay: Assay of PSA with dextran scaffold chemiluminescent-labeled sbp with and without SSIA; assay type: biochemical, human; settings: ascorbic acid as SSIA
Protocol: In this example, one member of a specific binding pair of monoclonal antibodies for PSA is conjugated to a dextran molecule coupled with AK1, as described in Example 10 below, except the antibody is thiolated and covalently-linked to AK11-labeled and maleimide-activated dextran. A second monoclonal PSA antibody was conjugated to HRP, as described above and provided in an aqueous solution at either 0.5 μg/ml, 0.1 μg/ml or 0.03 μg/ml as indicated in the tables below. The assays were performed by placing 25 μl of sample in each of two reaction vessels. To the sample in the first reaction vessel, 25 μl of Ab1 solution, 25 μl of water, 25 μl of Ab2 solution was added and incubated for 15 minutes. […] Each sample was analyzed according to the above assay method in triplicate. […] A ratio of signal to noise (S/S0) was calculated at each concentration value. […] Samples of known concentration were prepared as described previously. Each sample was analyzed according to the above method in triplicate.

biotinylated HRP = assay: Model system for selection of SSIA (AK1/streptavidin BSA microparticles + biotinylated HRP); assay type: biochemical, horseradish; settings: SSIA 100 μM final
Summary of the method: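 Streptavidin/AK1/biotin-BSA M280 microparticles mixed with candidate SSIA (100 μM final) and Btn-HRP at 0, 1, 10, 100 or 250 ng/mL, with unlabeled HRP to 500 ng/mL total HRP. After 30 min at 37° C, trigger solution was added and light intensity recorded on a modified DxI analyzer.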

[1] = SSIA final concentration 125 uM
[2] = SSIA final concentration 250 uM
[3] = SSIA final concentration 500 uM

## O=C1O[C@H]([C@@H](O)CO)C(O)=C1O [Ascorbic Acid]
TnI; [1]
  Signal/Noise S1/S0: 1.4
  Signal/Noise S2/S0: 2.7
  Signal/Noise S3/S0: 8.5
  Signal/Noise S4/S0: 32.2
  Signal/Noise S5/S0: 228.0
  Signal/Noise S6/S0: 2196.3
TnI; [2]
  Signal/Noise S1/S0: 1.6
  Signal/Noise S2/S0: 2.6
  Signal/Noise S3/S0: 8.2
  Signal/Noise S4/S0: 28.7
  Signal/Noise S5/S0: 188.5
  Signal/Noise S6/S0: 1511.1
TnI; [3]
  Signal/Noise S1/S0: 1.3
  Signal/Noise S2/S0: 1.8
  Signal/Noise S3/S0: 5.1
  Signal/Noise S4/S0: 15.4
  Signal/Noise S5/S0: 87.5
  Signal/Noise S6/S0: 562.4
PSA; PSA 0.0 ng/mL
  RLU, w/SSIA: 1756 RLU
  S/S0, w/SSIA: 1.0
PSA; PSA 0.4 ng/mL
  RLU, w/SSIA: 4393 RLU
  S/S0, w/SSIA: 2.5
PSA; PSA 7.0 ng/mL
  RLU, w/SSIA: 57119 RLU
  S/S0, w/SSIA: 32.5
PSA; PSA 101.6 ng/mL
  RLU, w/SSIA: 604024 RLU
  S/S0, w/SSIA: 344.0
Biotinylated HRP; Btn-HRP 0 ng/mL, total HRP 500 ng/mL
  light intensity, BTN-HRP0: 97 and 151
Biotinylated HRP; Btn-HRP 1 ng/mL vs 0
  S1/S0: 7.8 and 6.6
Biotinylated HRP; Btn-HRP 1 ng/mL, total HRP 500 ng/mL
  light intensity, BTN-HRP1: 757 and 995
Biotinylated HRP; Btn-HRP 10 ng/mL vs 0
  S2/S0: 171.6 and 216.2
Biotinylated HRP; Btn-HRP 10 ng/mL, total HRP 500 ng/mL
  light intensity, BTN-HRP10: 16,641 and 32,568
Biotinylated HRP; Btn-HRP 100 ng/mL vs 0
  S3/S0: 38064.9 and 30222.2
Biotinylated HRP; Btn-HRP 100 ng/mL, total HRP 500 ng/mL
  light intensity, BTN-HRP100: 3,692,291 and 4,553,473
Biotinylated HRP; Btn-HRP 250 ng/mL vs 0
  S4/S0: 62228.3 and 59176.1
Biotinylated HRP; Btn-HRP 250 ng/mL, total HRP 500 ng/mL
  light intensity, BTN-HRP250: 6,036,145 and 8,915,869
Biotinylated HRP
  effectiveness as SSIA in the model system: demonstrating utility as SSIA
